From patent publication US11028079B2 (ConverGene LLC, priority 2015, dated 2021) come the findings set out here.

In the experiment the target is T1, BRD4 bromodomains (Homo sapiens, UniProt O60885).
T1 construct: fused on or other part: T7 phage capsid protein (phage-display fusion; the phage DNA is read out by qPCR)
Description: BROMOscan bromodomain competition binding assay (DiscoveRx). The note with it: Kd from 11 compound concentrations ranging from 0 to 10 μM, read-out: BROMOscan Relative Activity. As to the method: Bromodomain assays were conducted to measure interactions between certain compounds and bromodomains.
The assays were conducted according to BROMOscan protocol from Discover Rx. Briefly, BRD4 bromodomains expressed as a fusion capsid protein of T7 phage were bound to acetylated peptide ligand on a solid phase and competition bindings were performed. T7 phage strains displaying bromodomains were grown in parallel in 24-well blocks in an E. coli host derived from the BL21 strain. E. coli were grown to log-phase and infected with T7 phage from a frozen stock (multiplicity of infection=0.4) and incubated with shaking at 32° C. until lysis (90-150 minutes). The lysates were centrifuged (5,000×g) and filtered (0.2 μm) to remove cell debris. […] The liganded beads were blocked with excess biotin and washed with blocking buffer (SeaBlock (Pierce), 1% BSA, 0.05% Tween 20, 1 mM DTT) to remove unbound ligand and to reduce non-specific phage binding. […] Test compounds were prepared as 1000× stocks in 100% DMSO and subsequently diluted 1:10 in monoethylene glycol (MEG) to create stocks at 100× the screening concentration (resulting stock solution is 10% DMSO/90% MEG). The compounds were then diluted directly into the assays such that the final concentration of DMSO and MEG were 0.1% and 0.9%, respectively. All reactions were performed in polystyrene 96-well plates in a final volume of 0.135 ml. […] The bromodomain concentration in the eluates was measured by qPCR. Data was collected at 11 compound concentrations ranging from 0 to 10 μM. Kd values were then derived from a standard dose-response curve generated with Hill equation (Hill Slope was set to ˜1) and a non-linear least square fit with the Levenberg-Marquardt algorithm. Response=Background+Signal−Background/1+(Kd Hill Slope/Dose Hill Slope)

As for `Cc1noc(C)c1-c1ccc2nc(C(=O)N3CCc4c(cnn4C)C3)nc(N3CCOC[C@@H]3c3ccccc3)c2c1` [Example 276, (S)-(6-(3,5-dimethylisoxazol-4-yl)-4-(3-phenylmorpholino)quinazolin-2-yl)(1-methyl-1,4,6,7-tetrahydro-5H-pyrazolo[4,3-c]pyridin-5-yl)methanone], the Kd lay in the range of 500 to 5000 nM. For `Cn1cc(-c2ccc3nc(N4CCN(C(=O)CO)CC4)nc(NCc4cccc(Cl)c4)c3c2)ccc1=O` [Example 106, 5-(4-((3-chlorobenzyl)amino)-2-(4-(2-hydroxyacetyl)piperazin-1-yl)quinazolin-6-yl)-1-methylpyridin-2(1H)-one] the value was under 500 nM; for `Cc1noc(C)c1-c1ccc2nc(N3CCCN(CCO)CC3)nc(NCc3cccc(Cl)c3)c2c1` [Example 33, 2-(4-(4-((3-chlorobenzyl)amino)-6-(3,5-dimethylisoxazol-4-yl)quinazolin-2-yl)-1,4-diazepan-1-yl)ethanol], under 500 nM; for `Cc1noc(C)c1-c1ccc2nc(N3CCN(CC(=O)N(C)C)CC3)nc(NCc3cncc(Cl)c3)c2c1` [Example 119, 2-(4-(4-(((5-chloropyridin-3-yl)methyl)amino)-6-(3,5-dimethylisoxazol-4-yl)quinazolin-2-yl)piperazin-1-yl)-N,N-dimethylacetamide], under 500 nM. Consider `CN(C)C(=O)CN1CCN(c2nc(NCc3cncc(Cl)c3)c3cc(-c4ccc(=O)n(C)c4)ccc3n2)CC1` [Example 129, 2-(4-(4-(((5-chloropyridin-3-yl)methyl)amino)-6-(1-methyl-6-oxo-1,6-dihydropyridin-3-yl)quinazolin-2-yl)piperazin-1-yl)-N,N-dimethylacetamide], for which the Kd was under 500 nM. As to `Cc1noc(C)c1-c1ccc2nc(N3CCC(CCO)CC3)nc(NCc3cccc(Cl)c3)c2c1` [Example 30, 2-(1-(4-((3-chlorobenzyl)amino)-6-(3,5-dimethylisoxazol-4-yl)quinazolin-2-yl)piperidin-4-yl)ethanol], the Kd lay within 500 to 5000 nM. The same measure for `Cc1cnccc1CNC(=O)c1nc(NCc2cccc(Cl)c2)c2cc(-c3c(C)noc3C)ccc2n1` [Example 217, 4-((3-chlorobenzyl)amino)-6-(3,5-dimethylisoxazol-4-yl)-N-((3-methylpyridin-4-yl)methyl)quinazoline-2-carboxamide]: under 500 nM. For `Cc1ccncc1CNc1nc(N2CCN(CCN(C)C)CC2)nc2ccc(-c3c(C)noc3C)cc12` [Example 84, 2-(4-(2-(dimethylamino)ethyl)piperazin-1-yl)-6-(3,5-dimethylisoxazol-4-yl)-N-((4-methylpyridin-3-yl)methyl)quinazolin-4-amine] the value was under 500 nM; for `Cc1noc(C)c1-c1ccc2nc(-c3cnn(C4CCNCC4)c3)nc(N3CCOC[C@@H]3c3ccccc3)c2c1` [Example 319, (S)-4-(6-(3,5-dimethylisoxazol-4-yl)-2-(1-(piperidin-4-yl)-1H-pyrazol-4-yl)quinazolin-4-yl)-3-phenylmorpholine], under 500 nM. With `CNC(=O)Cn1cc(-c2nc(NCc3cncc(Cl)c3)c3cc(-c4ccc(=O)n(C)c4)ccc3n2)cn1` [Example 147, 2-(4-(4-(((5-chloropyridin-3-yl)methyl)amino)-6-(1-methyl-6-oxo-1,6-dihydropyridin-3-yl)quinazolin-2-yl)-1H-pyrazol-1-yl)-N-methylacetamide], the Kd is under 500 nM.

For `Cc1cc(NCc2cccc(Cl)c2)c2cc(-c3c(C)noc3C)ccc2n1` [Example 4, N-(3-chlorobenzyl)-6-(3,5-dimethylisoxazol-4-yl)-2-methylquinolin-4-amine], the Kd was 500 to 5000 nM. The same measure for `Cc1noc(C)c1-c1ccc2nc(N3CCC(S(C)(=O)=O)CC3)nc(NCc3cccc(Cl)c3)c2c1` [Example 153, N-(3-chlorobenzyl)-6-(3,5-dimethylisoxazol-4-yl)-2-(4-(methylsulfonyl)piperidin-1-yl)quinazolin-4-amine]: under 500 nM; for `CC(=O)N1CCN(c2nc(NC3(c4cccc(Cl)c4)CC3)c3cc(-c4c(C)noc4C)ccc3n2)CC1` [Example 185, 1-(4-(4-((1-(3-chlorophenyl)cyclopropyl)amino)-6-(3,5-dimethylisoxazol-4-yl)quinazolin-2-yl)piperazin-1-yl)ethanone]: under 500 nM. For `Cc1noc(C)c1-c1ccc2nc(N3CCN(C(=O)c4cnn(C)c4)CC3)nc(N3CCOC[C@@H]3c3ccccc3)c2c1` [Example 300, (S)-(4-(6-(3,5-dimethylisoxazol-4-yl)-4-(3-phenylmorpholino)quinazolin-2-yl)piperazin-1-yl)(1-methyl-1H-pyrazol-4-yl)methanone] the value was under 500 nM; for `CN(C)C(=O)Cn1cc(-c2nc(NCc3cncc(Cl)c3)c3cc(-c4ccc(=O)n(C)c4)ccc3n2)cn1` [Example 146, 2-(4-(4-(((5-chloropyridin-3-yl)methyl)amino)-6-(1-methyl-6-oxo-1,6-dihydropyridin-3-yl)quinazolin-2-yl)-1H-pyrazol-1-yl)-N,N-dimethylacetamide], under 500 nM. For `CN(C)CCN1CCN(c2nc(NCc3cccc(Cl)c3)c3cc(Br)ccc3n2)CC1` [Example 19, 6-bromo-N-(3-chlorobenzyl)-2-(4-(2-(dimethylamino)ethyl)piperazin-1-yl)quinazolin-4-amine] the value was over 5000 nM; for `Cc1noc(C)c1-c1ccc2nc(C(=O)NCc3ccncc3)nc(NCc3cccc(Cl)c3)c2c1` [Example 171, 4-((3-chlorobenzyl)amino)-6-(3,5-dimethylisoxazol-4-yl)-N-(pyridin-4-ylmethyl)quinazoline-2-carboxamide], under 500 nM. For the molecule `Cc1ncc(CNC(=O)c2nc(NCc3cccc(Cl)c3)c3cc(-c4c(C)noc4C)ccc3n2)s1` [Example 212, 4-((3-chlorobenzyl)amino)-6-(3,5-dimethylisoxazol-4-yl)-N-((2-methylthiazol-5-yl)methyl)quinazoline-2-carboxamide], the Kd is under 500 nM. The same measure for `Cc1noc(C)c1-c1ccc2nc(N3CCS(=O)(=O)CC3)nc(NCc3cncc(Cl)c3)c2c1` [Example 241, 4-(4-(((5-chloropyridin-3-yl)methyl)amino)-6-(3,5-dimethylisoxazol-4-yl)quinazolin-2-yl)thiomorpholine 1,1-dioxide]: under 500 nM; for `CNC(=O)C1CCN(c2nc(N3CCN(CCN(C)C)CC3)nc3ccc(-c4c(C)noc4C)cc23)CC1` [Example 267, 1-(2-(4-(2-(dimethylamino)ethyl)piperazin-1-yl)-6-(3,5-dimethylisoxazol-4-yl)quinazolin-4-yl)-N-methylpiperidine-4-carboxamide]: under 500 nM.

Consider `CN(C)CCN1CCN(c2nc(NCc3cncc(Cl)c3)c3cc(-c4ccc(=O)n(C)c4)ccc3n2)CC1` [Example 124, 5-(4-(((5-chloropyridin-3-yl)methyl)amino)-2-(4-(2-(dimethylamino)ethyl)piperazin-1-yl)quinazolin-6-yl)-1-methylpyridin-2(1H)-one], for which the Kd was under 500 nM.

For the molecule `Cc1noc(C)c1-c1ccc2nc(N(C)CCN(C)C)nc(NCc3cccc(Cl)c3)c2c1` [Example 22, N4-(3-chlorobenzyl)-N2-(2-(dimethylamino)ethyl)-6-(3,5-dimethylisoxazol-4-yl)-N2-methylquinazoline-2,4-diamine], the Kd was under 500 nM. The same measure for `Cc1noc(C)c1-c1ccc2nc(N3CCN(S(C)(=O)=O)CC3)nc(NCc3cccc(Cl)c3)c2c1` [Example 155, N-(3-chlorobenzyl)-6-(3,5-dimethylisoxazol-4-yl)-2-(4-(methylsulfonyl)piperazin-1-yl)quinazolin-4-amine]: under 500 nM; for `Cc1noc(C)c1-c1ccc2nc(-c3cnn(CC#N)c3)nc(NCc3cccc(Cl)c3)c2c1` [Example 59, 2-(4-(4-((3-chlorobenzyl)amino)-6-(3,5-dimethylisoxazol-4-yl)quinazolin-2-yl)-1H-pyrazol-1-yl)acetonitrile]: under 500 nM; for `Cc1noc(C)c1-c1ccc2nc(-c3cnn(CS(C)(=O)=O)c3)nc(N3CCOC[C@@H]3c3ccccc3)c2c1` [Example 302, (S)-4-(6-(3,5-dimethylisoxazol-4-yl)-2-(1-((methylsulfonyl)methyl)-1H-pyrazol-4-yl)quinazolin-4-yl)-3-phenylmorpholine]: under 500 nM. For `Cc1noc(C)c1-c1ccc2nc(N3CCC4(CCC(=O)N4C)CC3)nc(N3CCOC[C@@H]3c3ccccc3)c2c1` [Example 330, (S)-8-(6-(3,5-dimethylisoxazol-4-yl)-4-(3-phenylmorpholino)quinazolin-2-yl)-1-methyl-1,8-diazaspiro[4.5]decan-2-one] the value was under 500 nM; for `Cc1noc(C)c1-c1ccc2nc(-c3cnn(CCO)c3)nc(NC3(c4cccc(Cl)c4)CC3)c2c1` [Example 164, 2-(4-(4-((1-(3-chlorophenyl)cyclopropyl)amino)-6-(3,5-dimethylisoxazol-4-yl)quinazolin-2-yl)-1H-pyrazol-1-yl)ethanol], under 500 nM.
